Measured values: patent US20260217701A1, “SELECTIVE BET INHIBITORS AND USES THEREOF” (Tay Therapeutics Limited, priority 2022, published 2026)
Several values for one entry are separate records, joined by “and”; a condition that tells them apart may be missing. Identical values can stand only once.

Assay: CIA study: animal body weight
Conditions: for Animal body weight percent change (%): individual animals; for Average animal body weight / Average animal body weight percent change: CIA

Cn1cc(-c2ccccc2)c(-c2cn(C)c(=O)c3[nH]c(-c4cnn(C(F)(F)F)c4)cc23)cc1=O [Compound A, 6-methyl-4-(1-methyl-2-oxo-5-phenyl-1,2-dihydropyridin-4-yl)-2-(1-(trifluoromethyl)-1H-pyrazol-4-yl)-1,6-dihydro-7H-pyrrolo[2,3-c]pyridin-7-one]
Animal body weight percent change (%) (Day 9, Group 5 (CIA + Compound A 1 mg/kg), 1 mg/kg): 9.09% and −4.88% and 8.02% and 6.58% and 2.37% and 1.80% and 3.68% | Animal body weight percent change (%) (Day 9, Group 6 (CIA + Compound A 3 mg/kg), 3 mg/kg): −3.57% and 0.00% (2×) and 1.71% and 1.20% and 4.19% and 8.28% and 2.56% | Average animal body weight (Day 10, 1 mg/kg): 170 | Average animal body weight percent change (Day 10, 1 mg/kg): 4.20% | Average animal body weight (Day 10, 3 mg/kg): 168 | Average animal body weight percent change (Day 10, 3 mg/kg): 1.65% | Average animal body weight (Day 10, 10 mg/kg): 164 | Average animal body weight percent change (Day 10, 10 mg/kg): 0.89% | Animal body weight percent change (%) (Day 10, Group 5 (CIA + Compound A 1 mg/kg), 1 mg/kg): 7.88% and −5.49% and 9.88% and 9.21% and 0.59% and 5.39% and 1.84% | Animal body weight percent change (%) (Day 10, Group 6 (CIA + Compound A 3 mg/kg), 3 mg/kg): −3.57% and 0.58% and 1.14% and 1.80% and 0.60% and 2.45% and 6.37% | Average animal body weight (Day 11, 1 mg/kg): 170 | Average animal body weight percent change (Day 11, 1 mg/kg): 4.25% | Average animal body weight (Day 11, 3 mg/kg): 169 | Average animal body weight percent change (Day 11, 3 mg/kg): 1.92% | Average animal body weight (Day 11, 10 mg/kg): 165 | Average animal body weight percent change (Day 11, 10 mg/kg): 1.44% | Animal body weight percent change (%) (Day 11, Group 5 (CIA + Compound A 1 mg/kg), 1 mg/kg): 9.09% and −4.27% and 9.88% and 6.58% and 0.59% and 4.79% and 2.45% | Animal body weight percent change (%) (Day 11, Group 6 (CIA + Compound A 3 mg/kg), 3 mg/kg): −4.76% and 0.58% and 1.71% and 2.99% and −4.19% and 3.68% and 9.55% | Average animal body weight (Day 12, 1 mg/kg): 171 | Average animal body weight percent change (Day 12, 1 mg/kg): 4.85% | Average animal body weight (Day 12, 3 mg/kg): 167 | Average animal body weight percent change (Day 12, 3 mg/kg): 0.97% | Average animal body weight (Day 12, 10 mg/kg): 164 | Average animal body weight percent change (Day 12, 10 mg/kg): 1.36% | Animal body weight percent change (%) (Day 12, Group 5 (CIA + Compound A 1 mg/kg), 1 mg/kg): 10.30% and −3.66% and 8.64% and 6.58% and 2.96% and 5.99% and 1.23% | Animal body weight percent change (%) (Day 12, Group 6 (CIA + Compound A 3 mg/kg), 3 mg/kg): −5.95% and 2.92% and 2.86% and 0.00% and −5.39% and 3.68% and 9.55% | Average animal body weight (Day 13, 1 mg/kg): 169 | Average animal body weight percent change (Day 13, 1 mg/kg): 3.78% | Average animal body weight (Day 13, 3 mg/kg): 167 | Average animal body weight percent change (Day 13, 3 mg/kg): 0.88% | Average animal body weight (Day 13, 10 mg/kg): 163 | Average animal body weight percent change (Day 13, 10 mg/kg): 0.66% | Animal body weight percent change (%) (Day 13, Group 5 (CIA + Compound A 1 mg/kg), 1 mg/kg): 9.09% and −3.66% and 10.49% and 5.26% and 2.96% and 2.99% and 1.23% | Animal body weight percent change (%) (Day 13, Group 6 (CIA + Compound A 3 mg/kg), 3 mg/kg): −3.57% and 2.34% and −5.14% and 3.59% and −5.99% and 3.07% and 8.92% | Average animal body weight (Day 14, 1 mg/kg): 170 | Average animal body weight percent change (Day 14, 1 mg/kg): 3.90% | Average animal body weight (Day 14, 3 mg/kg): 167 | Average animal body weight percent change (Day 14, 3 mg/kg): 0.99% | Average animal body weight (Day 14, 10 mg/kg): 162 | Average animal body weight percent change (Day 14, 10 mg/kg): 0.03% | Animal body weight percent change (%) (Day 14, Group 5 (CIA + Compound A 1 mg/kg), 1 mg/kg): 7.88% and −3.05% and 10.49% and 1.97% and 3.55% and 1.80% and 3.07% | Animal body weight percent change (%) (Day 14, Group 6 (CIA + Compound A 3 mg/kg), 3 mg/kg): −2.98% and 3.51% and −2.86% and 4.79% and −6.59% and 2.45% and 8.28% | Average animal body weight (Day 15, 1 mg/kg): 168 | Average animal body weight percent change (Day 15, 1 mg/kg): 3.24% | Average animal body weight (Day 15, 3 mg/kg): 166 | Average animal body weight percent change (Day 15, 3 mg/kg): 0.37% | Average animal body weight (Day 15, 10 mg/kg): 162 | Average animal body weight percent change (Day 15, 10 mg/kg): 0.13% | Average animal body weight (Day 16, 1 mg/kg): 167 | Average animal body weight percent change (Day 16, 1 mg/kg): 2.62% | Average animal body weight (Day 16, 3 mg/kg): 165 | Average animal body weight percent change (Day 16, 3 mg/kg): −0.37% | Average animal body weight (Day 16, 10 mg/kg): 161 | Average animal body weight percent change (Day 16, 10 mg/kg): −0.57% | Average animal body weight (Day 17, 1 mg/kg): 167 | Average animal body weight percent change (Day 17, 1 mg/kg): 2.48% | Average animal body weight (Day 17, 3 mg/kg): 163 | Average animal body weight percent change (Day 17, 3 mg/kg): −1.43% | Average animal body weight (Day 17, 10 mg/kg): 161 | Average animal body weight percent change (Day 17, 10 mg/kg): −0.47% | Average animal body weight (Day 18, 1 mg/kg): 167 | Average animal body weight percent change (Day 18, 1 mg/kg): 2.38% | Average animal body weight (Day 18, 3 mg/kg): 164 | Average animal body weight percent change (Day 18, 3 mg/kg): −1.11% | Average animal body weight (Day 18, 10 mg/kg): 162 | Average animal body weight percent change (Day 18, 10 mg/kg): −0.29% | Average animal body weight (Day 19, 1 mg/kg): 166 | Average animal body weight percent change (Day 19, 1 mg/kg): 1.46% | Average animal body weight (Day 19, 3 mg/kg): 163 | Average animal body weight percent change (Day 19, 3 mg/kg): −1.74% | Average animal body weight (Day 19, 10 mg/kg): 161 | Average animal body weight percent change (Day 19, 10 mg/kg): −0.70% | Average animal body weight (Day 20, 1 mg/kg): 166 | Average animal body weight percent change (Day 20, 1 mg/kg): 1.92% | Average animal body weight (Day 20, 3 mg/kg): 162 | Average animal body weight percent change (Day 20, 3 mg/kg): −2.24% | Average animal body weight (Day 20, 10 mg/kg): 161 | Average animal body weight percent change (Day 20, 10 mg/kg): −0.54% | Average animal body weight (Day 21, 1 mg/kg): 165 | Average animal body weight percent change (Day 21, 1 mg/kg): 0.93% | Average animal body weight (Day 21, 3 mg/kg): 162 | Average animal body weight percent change (Day 21, 3 mg/kg): −1.78% | Average animal body weight (Day 21, 10 mg/kg): 161 | Average animal body weight percent change (Day 21, 10 mg/kg): −0.75%
